Source: patent US6689773B2, “Uracil substituted phenyl sulfamoyl carboxamides” (BASF Aktiengesellschaft, priority 2000, dated 2004)

What was measured:
[1] = tested on: Amaranthus retroflexus (AMARE), Redroot pigweed; assay: Greenhouse post-emergence herbicidal action (Example 149); assay type: in vivo; conditions: 15.6 or 7.8 g/ha of a.i.
Experimental: (§1) The culture containers used were plastic flowerpots containing loamy sand with approximately 3.0% of humus as substrate. The seeds of the test plants were sown separately for each species.
(§2) For the post-emergence treatment, the test plants were grown to a plant height of from 3 to 15 cm, depending on the plant habit, and only then treated with the active ingredients which had been suspended or emulsified in water. To this end, the test plants were either sown directly and grown in the same containers, or they were first grown separately as seedlings and transplanted into the test containers a few days prior to treatment. The rate of application for the post-emergence treatment was 15.6 or 7.8 g/ha active ingredient.
(§3) Depending on the species, the plants were kept at from 10-25° C. and 20-35° C., respectively. The test period extended over 2 to 4 weeks. During this time, the plants were tended, and their response to the individual treatments was evaluated.
(§4) Evaluation was carried out using a scale of from 0 to 100. 100 means no emergence of the plants, or complete destruction of at least the aerial parts, and 0 means no damage or normal course of growth.
(§5) The plants used in the greenhouse experiments belonged to the following species: […]

[2] = tested on: Pharbitis purpurea (PHBPU), common or tall morningglory; assay: as above; assay type: in vivo; conditions: 15.6 or 7.8 g/ha of a.i.
Experimental: as §1, §2, §3, §4, §5

[3] = tested on: Polygonum persicaria (POLPE), redshank; ladysthumb; assay: as above; assay type: in vivo; conditions: 15.6 or 7.8 g/ha of a.i.
Experimental: as §1, §2, §3, §4, §5

potato plants = assay: Field trials of preharvest desiccant activity (Example 151); assay type: in vivo, Potatoes; conditions: EC formulation 120 grams a.i./liter applied to foliage a few weeks before harvest
Experimental: Field evaluations of preharvest desiccant activity were performed at several different locations using compound Ia.86. In each experiment treatments was replicated three times in a randomized complete block experimental design. Potatoes were grown using good agronomic practices of each area. Treatments were applied a few weeks before planned potato harvest. The test compound was formulated as an emulsifiable concentrate (EC) formulation with 120 grams a.i./liter. The formulation was diluted with water, spray adjuvants were added, and the treatment solution was applied to the foliage of potatoes in from 187 to 600 l/ha of total spray volume. Unless indicated otherwise, the treatments also contained […] of methylated seed oil adjuvant (Hasten or SUN-IT II. In the case of split applications, the second application was made about 1 week after the initial application. At various intervals after treatment, desiccation of stems and leaves was evaluated separately, on a visual % desiccation scale. In each test the test compound was compared to appropriate commercial standards at the normal rate for each standard for the area.

[4] = tested on: ABUTH, Velvetleaf, Abutilon theophrasti, Medic.; assay: Postemergence herbicidal evaluation (Example 147); assay type: in vivo; conditions: rating scale 0-9, two to three weeks after treatment
How it was run: (§6)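 Postemergence foliar application, approximately 0.016–0.032 kg/ha, to young seedlings grown about two weeks. Response read as a 0–9 visual injury score against untreated plants at two to three weeks.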

[5] = tested on: ALOMY, Blackgrass, Alopecurus myosuroides; assay: Postemergence herbicidal evaluation (Example 147); assay type: in vivo; conditions: rating scale 0-9, two to three weeks after treatment
How it was run: as §6

[6] = tested on: AMBEL, Ragweed, Common, Ambrosia artemiisifolia, L.; assay: Postemergence herbicidal evaluation (Example 147); assay type: in vivo; conditions: rating scale 0-9, two to three weeks after treatment
How it was run: as §6

[7] = tested on: CHEAL, Lambsquarters, Chenopodium album, L. Common; assay: Postemergence herbicidal evaluation (Example 147); assay type: in vivo; conditions: rating scale 0-9, two to three weeks after treatment
How it was run: as §6

[8] = tested on: DIGSA, Crabgrass, (Hairy) L, Digitaria sanguinalis, (L)Scop; assay: Postemergence herbicidal evaluation (Example 147); assay type: in vivo; conditions: rating scale 0-9, two to three weeks after treatment
How it was run: as §6

[9] = tested on: ECHCG, Barnyardgrass, Echinochloa crusgalli, (L.)Beau; assay: Postemergence herbicidal evaluation (Example 147); assay type: in vivo; conditions: rating scale 0-9, two to three weeks after treatment
How it was run: as §6

[10] = tested on: GLXMA, Soybean, Glycine max, (L.) Merr.; assay: Postemergence herbicidal evaluation (Example 147); assay type: in vivo; conditions: rating scale 0-9, two to three weeks after treatment
How it was run: as §6

[11] = tested on: IPOHE, Morningglory, Ivyleaf, Ipomoea hederacea, (L)Jacq.; assay: Postemergence herbicidal evaluation (Example 147); assay type: in vivo; conditions: rating scale 0-9, two to three weeks after treatment
How it was run: as §6

[12] = tested on: SETVI, Green foxtail, Setaria viridis, (L.)Beau; assay: Postemergence herbicidal evaluation (Example 147); assay type: in vivo; conditions: rating scale 0-9, two to three weeks after treatment
How it was run: as §6

[13] = tested on: TRZAW, Winter wheat, Tritium Aestivum, L. (Winter); assay: Postemergence herbicidal evaluation (Example 147); assay type: in vivo; conditions: rating scale 0-9, two to three weeks after treatment
How it was run: as §6

[14] = tested on: XANST, Cocklebur, Xanthium strumariam; assay: Postemergence herbicidal evaluation (Example 147); assay type: in vivo; conditions: rating scale 0-9, two to three weeks after treatment
How it was run: as §6

[15] = tested on: ZEAMX, Field corn, Zea mays L.; assay: Postemergence herbicidal evaluation (Example 147); assay type: in vivo; conditions: rating scale 0-9, two to three weeks after treatment
How it was run: as §6

[16] = tested on: ABUTH, Velvetleaf, Abutilon theophrasti, Medic.; assay: Preemergence herbicidal evaluation (Example 148); assay type: in vivo; conditions: rating scale 0-9, two to four weeks after treatment
How it was run: (§7)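 Following sowing, cups received a soil spray of the compound dissolved in aqueous acetone, dosed to about 0.125 to 0.250 kg per hectare. Growth continued in the greenhouse under routine care before visual scoring at two to four weeks.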

[17] = tested on: ALOMY, Blackgrass, Alopecurus myosuroides; assay: Preemergence herbicidal evaluation (Example 148); assay type: in vivo; conditions: rating scale 0-9, two to four weeks after treatment
How it was run: as §7

[18] = tested on: AMBEL, Ragweed, Common, Ambrosia artemiisifolia, L.; assay: Preemergence herbicidal evaluation (Example 148); assay type: in vivo; conditions: rating scale 0-9, two to four weeks after treatment
How it was run: as §7

[19] = tested on: CHEAL, Lambsquarters, Chenopodium album, L. Common; assay: Preemergence herbicidal evaluation (Example 148); assay type: in vivo; conditions: rating scale 0-9, two to four weeks after treatment
How it was run: as §7

[20] = tested on: DIGSA, Crabgrass, (Hairy) L, Digitaria sanguinalis, (L)Scop; assay: Preemergence herbicidal evaluation (Example 148); assay type: in vivo; conditions: rating scale 0-9, two to four weeks after treatment
How it was run: as §7

[21] = tested on: ECHCG, Barnyardgrass, Echinochloa crusgalli, (L.)Beau; assay: Preemergence herbicidal evaluation (Example 148); assay type: in vivo; conditions: rating scale 0-9, two to four weeks after treatment
How it was run: as §7

[22] = tested on: GLXMA, Soybean, Glycine max, (L.) Merr.; assay: Preemergence herbicidal evaluation (Example 148); assay type: in vivo; conditions: rating scale 0-9, two to four weeks after treatment
How it was run: as §7

[23] = tested on: IPOHE, Morningglory, Ivyleaf, Ipomoea hederacea, (L)Jacq.; assay: Preemergence herbicidal evaluation (Example 148); assay type: in vivo; conditions: rating scale 0-9, two to four weeks after treatment
How it was run: as §7

[24] = tested on: SETVI, Green foxtail, Setaria viridis, (L.)Beau; assay: Preemergence herbicidal evaluation (Example 148); assay type: in vivo; conditions: rating scale 0-9, two to four weeks after treatment
How it was run: as §7

[25] = tested on: TRZAW, Winter wheat, Tritium Aestivum, L. (Winter); assay: Preemergence herbicidal evaluation (Example 148); assay type: in vivo; conditions: rating scale 0-9, two to four weeks after treatment
How it was run: as §7

[26] = tested on: XANST, Cocklebur, Xanthium strumariam; assay: Preemergence herbicidal evaluation (Example 148); assay type: in vivo; conditions: rating scale 0-9, two to four weeks after treatment
How it was run: as §7

[27] = tested on: ZEAMX, Field corn, Zea mays L.; assay: Preemergence herbicidal evaluation (Example 148); assay type: in vivo; conditions: rating scale 0-9, two to four weeks after treatment
How it was run: as §7

CC(C)N(C)S(=O)(=O)NC(=O)c1cc(-c2ncc(C(F)(F)F)cc2Cl)c(F)cc1Cl [Iy.86, N′-[[2-Chloro-5-[3-chloro-5-(trifluoromethyl)-2-pyridinyl]-4-fluorobenzoyl]]-N-isopropyl-N-methylsulfamide]
very good herbicial action: herbicidal action [1] | herbicidal action [2] | herbicidal action [3]

CC(C)N(C)S(=O)(=O)NC(=O)c1cc(-c2nn(C)c(OC(F)F)c2Cl)c(F)cc1Cl [Ip.86, 4-Chloro-3-[4-chloro-2-fluoro-5-(N-methyl-N-isopropyl)-sulfamoylcarboxamidophenyl]-5-difluoromethoxy-1-methyl-1H-pyrazole]
very good herbicial action: herbicidal action [1] | herbicidal action [2] | herbicidal action [3]

CC(C)N(C)S(=O)(=O)NC(=O)c1cc(-n2c(=O)n(C)c(=S)n(C)c2=O)c(F)cc1Cl [Ij.86, N′-[2-Chloro-5-(3,5-dimethyl-2,6-dioxo-4-thioxo-1,3,5-triazinan-1-yl)-4-fluorobenzoyl]-N-isopropyl-N-methylsulfamide]
very good herbicial action: herbicidal action [1] | herbicidal action [2] | herbicidal action [3]

CC(C)N(C)S(=O)(=O)NC(=O)c1cc(-n2c(=O)cc(C(F)(F)F)n(C)c2=O)c(F)cc1Cl [Ia.86]
very effective: desiccation of the leaves and stems of potato plants (potato plants)

COc1ccc(CNS(=O)(=O)NC(=O)c2cc(-n3c(=O)cc(C(F)(F)F)n(C)c3=O)c(F)cc2Cl)cc1 [Example 82]
4.0: Preemergence herbicidal rating DIGSA ([20]; rate 0.125 kg/ha) | Preemergence herbicidal rating DIGSA ([20]; rate 0.25 kg/ha) | Preemergence herbicidal rating ECHCG ([21]; rate 0.25 kg/ha)
6.5: Postemergence herbicidal rating ZEAMX ([15]; rate 0.016 kg/ha) | Postemergence herbicidal rating ZEAMX ([15]; rate 0.032 kg/ha)
2.0: Postemergence herbicidal rating ALMOY ([5]; rate 0.032 kg/ha) | Preemergence herbicidal rating ZEAMX ([27]; rate 0.25 kg/ha)
8.5: Postemergence herbicidal rating GLXMA ([10]; rate 0.032 kg/ha)
8.0: Postemergence herbicidal rating ECHCG ([9]; rate 0.032 kg/ha) | Postemergence herbicidal rating GLXMA ([10]; rate 0.016 kg/ha)
7.0: Postemergence herbicidal rating ECHCG ([9]; rate 0.016 kg/ha) | Postemergence herbicidal rating SETVI ([12]; rate 0.032 kg/ha) | Preemergence herbicidal rating SETVI ([24]; rate 0.25 kg/ha)
9.0: Postemergence herbicidal rating ABUTH ([4]; rate 0.016 kg/ha) | Postemergence herbicidal rating ABUTH ([4]; rate 0.032 kg/ha) | Postemergence herbicidal rating AMBEL ([6]; rate 0.016 kg/ha) | Postemergence herbicidal rating AMBEL ([6]; rate 0.032 kg/ha) | Postemergence herbicidal rating CHEAL ([7]; rate 0.016 kg/ha) | Postemergence herbicidal rating CHEAL ([7]; rate 0.032 kg/ha) | Postemergence herbicidal rating IPOHE ([11]; rate 0.016 kg/ha) | Postemergence herbicidal rating IPOHE ([11]; rate 0.032 kg/ha) | Postemergence herbicidal rating XANST ([14]; rate 0.016 kg/ha) | Postemergence herbicidal rating XANST ([14]; rate 0.032 kg/ha) | Preemergence herbicidal rating ABUTH ([16]; rate 0.125 kg/ha) | Preemergence herbicidal rating ABUTH ([16]; rate 0.25 kg/ha) | Preemergence herbicidal rating AMBEL ([18]; rate 0.125 kg/ha) | Preemergence herbicidal rating AMBEL ([18]; rate 0.25 kg/ha) | Preemergence herbicidal rating CHEAL ([19]; rate 0.125 kg/ha) | Preemergence herbicidal rating CHEAL ([19]; rate 0.25 kg/ha) | Preemergence herbicidal rating GLXMA ([22]; rate 0.125 kg/ha) | Preemergence herbicidal rating GLXMA ([22]; rate 0.25 kg/ha) | Preemergence herbicidal rating IPOHE ([23]; rate 0.125 kg/ha) | Preemergence herbicidal rating IPOHE ([23]; rate 0.25 kg/ha) | Preemergence herbicidal rating XANST ([26]; rate 0.125 kg/ha) | Preemergence herbicidal rating XANST ([26]; rate 0.25 kg/ha)
3.0: Postemergence herbicidal rating DIGSA ([8]; rate 0.016 kg/ha) | Postemergence herbicidal rating DIGSA ([8]; rate 0.032 kg/ha) | Preemergence herbicidal rating ECHCG ([21]; rate 0.125 kg/ha) | Preemergence herbicidal rating SETVI ([24]; rate 0.125 kg/ha)
5.5: Postemergence herbicidal rating TRZAW ([13]; rate 0.016 kg/ha)
0.0: Preemergence herbicidal rating ALMOY ([17]; rate 0.125 kg/ha) | Preemergence herbicidal rating ALMOY ([17]; rate 0.25 kg/ha) | Preemergence herbicidal rating TRZAW ([25]; rate 0.125 kg/ha) | Preemergence herbicidal rating ZEAMX ([27]; rate 0.125 kg/ha)
1.0: Postemergence herbicidal rating ALMOY ([5]; rate 0.016 kg/ha) | Preemergence herbicidal rating TRZAW ([25]; rate 0.25 kg/ha)
6.0: Postemergence herbicidal rating SETVI ([12]; rate 0.016 kg/ha) | Postemergence herbicidal rating TRZAW ([13]; rate 0.032 kg/ha)
